Results reported in paper PMC6024615, “Effect of Biliary Drainage on the Toxicity and Toxicokinetics of Amanita exitialis in Beagles” (Toxins, 2018).

How the values were obtained:
[1] = Peptide toxins in the urine of beagles with biliary drainage; assay type: in vivo, beagle dogs; settings: for Total (accumulated) amount excreted in urine / percentage of total urine excretion, Total: 0–4 days
Procedure: (§1) The study was approved by National Institute of Occupational Health and Poison Control review board for animal experiments. Twenty-four male beagles (age, 8–10 months; weight, 10 ± 1 kg) were obtained from Beijing Institute of Xieerxin Biology Resource (Beijing, China). They were randomly divided into four groups of six animals each: control, biliary drainage, and 20 and 60 mg/kg with biliary drainage groups. The biliary drainage operation was conducted in all groups barring the control group. The dogs were dressed in homemade underwear, coats, and Elizabeth circles for a week to ensure pre-experimental acclimatization (Figure S8a–c). After determining the baseline values for biochemical indicators, the dogs were fasted for 24 h but received water ad libitum. They were anesthetized by intravenous administration of pentobarbital sodium (3%, 1 mL/kg) during the surgery. A temperature of 38–39 °C was maintained with a warming mat. After skin preservation and sterilization, the abdominal cavity was opened through the central abdomen. The abdomen was explored and blunt dissection of the common bile duct was performed (Figure S8d). The common bile duct and its branches were ligated from the intestinal side. A 7.0-Fr drainage catheter (COOK, Bloomington, IN, USA) was percutaneously inserted into the gallbladder, and a medical drainage bag was connected to the drainage catheter coming out of the abdominal cavity. Each opened layer, including the peritoneum, abdominal wall muscle, and skin, was closed with suture. The operative incision was protected with sterile gauze and a bandage, and the dogs were dressed in homemade underwear, coats, and Elizabeth circles. The drainage bag was placed in the pocket of the coat (Figure S8e). After the anesthetic wore off, the dogs were placed in cages, and food and water were provided ad libitum. The operative incision was sterilized with iodophor twice a day until stitches were removed six days after surgery. The drainage bag was replaced every day. On the eighth day after surgery, the 20 and 60 mg/kg with biliary drainage groups were orally administered a lyophilized powder of Amanita exitialis in starch capsules. In control and bile drainage group, the beagle dogs were fed with empty capsules. Immediately after dosing, the animals were placed in their cages, and food and water were provided ad libitum. Dogs were sacrificed with an overdose of sodium pentobarbital at the end of the experiment. All procedures were performed according to the ethical standards of the National Institutes of Health Guide for Animal Welfare and approved by the Institutional Animal Care and Use Committee (EAWE-2017-005).
(§2) Peptide toxins in blood and urine samples were analyzed as described previously. Bile samples from Days 0–1, Days 1–2, Days 2–3, and Days 3–4 were collected and stored in medical drainage bags and the bile volume was recorded. Plasma and urine samples were stored at 2–8 °C until analysis for peptide toxins.
(§3) UPLC and MS/MS parameters were as described in our previous study. The limit of detection and limit of quantitation of each toxin in the bile were 0.03 mg/kg and 0.5 mg/kg, respectively.

[2] = Peptide toxins in the bile of beagles with biliary drainage; assay type: in vivo, beagle dogs; settings: for Accumulated amounts excreted in bile / percentage of total bile excretion, Accumulated amounts: 0–4 days; for ratio of peptide toxins in bile to excretion in urine and bile: mean ± SD
Procedure: as §1, §2
α-Amanitin, β-amanitin, γ-amanitin, and phallacidin were used as the standard reference materials. Aliquots (0.2 mL) of bile samples were transferred into 2-mL polypropylene centrifuge tubes in duplicates. Next, 1 mL of acetonitrile was added to each tube. After vortex-mixing for 1 min, each sample was sonicated for 30 min and centrifuged at 11,200× g for 10 min at 4 °C. The supernatants were loaded on solid-phase extraction columns (Oasis PRiME HLB, 60 mg, 3 cc). The columns were then washed with 3 mL of methanol/ultrapure water (v/v: 5/95). The eluent was evaporated in a stream of nitrogen at room temperature. The dry residue was dissolved in 0.2 mL of ultrapure water and analyzed by UPLC-ESI-MS/MS.
as §3

[3] = 0-1 d, 20 mg/kg with biliary drainage group
[4] = 0-1 d, 60 mg/kg with biliary drainage group
[5] = 0–1 days, 20 mg/kg with biliary drainage group
[6] = 0–1 days, 60 mg/kg with biliary drainage group
[7] = 20 mg/kg with biliary drainage group
[8] = 60 mg/kg with biliary drainage group
[9] = 1-2 d, 20 mg/kg with biliary drainage group
[10] = 1-2 d, 60 mg/kg with biliary drainage group
[11] = 1–2 days, 20 mg/kg with biliary drainage group
[12] = 1–2 days, 60 mg/kg with biliary drainage group
[13] = 2-3 d, 20 mg/kg with biliary drainage group
[14] = 2-3 d, 60 mg/kg with biliary drainage group
[15] = 2–3 days, 20 mg/kg with biliary drainage group
[16] = 2–3 days, 60 mg/kg with biliary drainage group
[17] = 3-4d, 20 mg/kg with biliary drainage group
[18] = 3-4d, 60 mg/kg with biliary drainage group
[19] = 3–4 days, 20 mg/kg with biliary drainage group
[20] = 3–4 days, 60 mg/kg with biliary drainage group

SMILES: CC[C@H](C)[C@@H]1NC(=O)CNC(=O)[C@@H]2Cc3c([nH]c4cc(O)ccc34)[S@+]([O-])C[C@H](NC(=O)CNC1=O)C(=O)N[C@@H](CC(=O)O)C(=O)N1C[C@H](O)C[C@H]1C(=O)N[C@@H]([C@@H](C)[C@@H](O)CO)C(=O)N2 [β-amanitin]
- detection rate of peptide toxins in urine [1, 3]: 100%
- detection rate of peptide toxins in urine [1, 4]: 100%
- daily amount excreted in urine [1, 5]: 0.0050 mg
- percentage of total urine excretion excreted daily ([1]; 0–1 days, 20 mg/kg with biliary drainage group, 20 mg/kg): more than 90%
- percentage of total urine excretion excreted daily ([1]; 0–1 days, 20 mg/kg with biliary drainage group, listed as β-Amanitin, 20 mg/kg): 93.9%
- daily amount excreted in urine [1, 6]: 0.0065 mg
- percentage of total urine excretion excreted daily ([1]; 0–1 days, 60 mg/kg with biliary drainage group, 60 mg/kg): more than 90%
- percentage of total urine excretion excreted daily ([1]; 0–1 days, 60 mg/kg with biliary drainage group, listed as β-Amanitin, 60 mg/kg): 91.4%
- Total (accumulated) amount excreted in urine [1, 7]: 0.0055 mg
- percentage of total urine excretion, Total [1, 7]: 100%
- Total (accumulated) amount excreted in urine [1, 8]: 0.0068 mg
- percentage of total urine excretion, Total [1, 8]: 100%
- time within which toxin was detected in urine [1, 7]: two
- time within which toxin was detected in urine [1, 8]: two
- detection rate of peptide toxins in urine [1, 9]: 50%
- detection rate of peptide toxins in urine [1, 10]: 83%
- daily amount excreted in urine [1, 11]: 0.0005 mg
- percentage of total urine excretion excreted daily [1, 11]: 6.1%
- daily amount excreted in urine [1, 12]: 0.0003 mg
- percentage of total urine excretion excreted daily [1, 12]: 8.6%
- detection rate of peptide toxins in urine [1, 13]: 0%
- toxin content in urine ([1]; 2-3d, 20 mg/kg with biliary drainage group, mean ± SD): 0 µg/L
- detection rate of peptide toxins in urine [1, 14]: 0%
- toxin content in urine ([1]; 2-3d, 60 mg/kg with biliary drainage group, mean ± SD): 0 µg/L
- daily amount excreted in urine [1, 15]: 0(0%) mg
- percentage of total urine excretion excreted daily [1, 15]: 0(0%)
- daily amount excreted in urine [1, 16]: 0(0%) mg
- percentage of total urine excretion excreted daily [1, 16]: 0(0%)
- detection rate of peptide toxins in urine [1, 17]: 0%
- toxin content in urine [1, 17]: 0 µg/L
- detection rate of peptide toxins in urine [1, 18]: 0%
- toxin content in urine [1, 18]: 0 µg/L
- daily amount excreted in urine [1, 19]: 0(0%) mg
- percentage of total urine excretion excreted daily [1, 19]: 0(0%)
- daily amount excreted in urine [1, 20]: 0(0%) mg
- percentage of total urine excretion excreted daily [1, 20]: 0(0%)
- share of total urine excretion in the 0–2-day urine ([1]; beagles with biliary drainage, both dose groups): more than 95%
- detection rate of peptide toxins in bile [2, 3]: 50%
- detection rate of peptide toxins in bile [2, 4]: 83%
- daily amount excreted in bile [2, 5]: 0.00014 mg
- percentage of total bile excretion excreted daily [2, 5]: 100%
- daily amount excreted in bile [2, 6]: 0.00122 mg
- percentage of total bile excretion excreted daily [2, 6]: 100%
- Accumulated amounts excreted in bile [2, 7]: 0.00014 mg
- percentage of total bile excretion, Accumulated amounts [2, 7]: 100%
- percentage of total bile excretion, Accumulated amounts [2, 8]: 100%
- Accumulated amounts excreted in bile ([2]; 60 mg/kg with biliary drainage group, 60 mg/kg): 0.0012 mg
- Accumulated amounts excreted in bile ([2]; 60 mg/kg with biliary drainage group, listed as β-Amanitin, 60 mg/kg): 0.00122 mg
- ratio of peptide toxins in bile to excretion in urine and bile [2, 7]: less than 10%
- ratio of peptide toxins in bile to excretion in urine and bile ([2]; 20 mg/kg with biliary drainage group, listed as β-Amanitin): 5.7 ± 8.5%
- ratio of peptide toxins in bile to excretion in urine and bile [2, 8]: less than 20%
- ratio of peptide toxins in bile to excretion in urine and bile ([2]; 60 mg/kg with biliary drainage group, listed as β-Amanitin): 15.4 ± 10.6%
- detection rate of peptide toxins in bile [2, 9]: 0%
- toxin concentration in bile [2, 9]: 0 µg/L
- detection rate of peptide toxins in bile [2, 10]: 0%
- toxin concentration in bile [2, 10]: 0 µg/L
- daily amount excreted in bile [2, 11]: 0(0%) mg
- percentage of total bile excretion excreted daily [2, 11]: 0(0%)
- daily amount excreted in bile [2, 12]: 0(0%) mg
- percentage of total bile excretion excreted daily [2, 12]: 0(0%)
- detection rate of peptide toxins in bile [2, 13]: 0%
- toxin concentration in bile [2, 13]: 0 µg/L
- detection rate of peptide toxins in bile [2, 14]: 0%
- toxin concentration in bile [2, 14]: 0 µg/L
- daily amount excreted in bile [2, 15]: 0(0%) mg
- percentage of total bile excretion excreted daily [2, 15]: 0(0%)
- daily amount excreted in bile [2, 16]: 0(0%) mg
- percentage of total bile excretion excreted daily [2, 16]: 0(0%)
- detection rate of peptide toxins in bile [2, 17]: 0%
- toxin concentration in bile [2, 17]: 0 µg/L
- detection rate of peptide toxins in bile [2, 18]: 0%
- toxin concentration in bile [2, 18]: 0 µg/L
- daily amount excreted in bile [2, 19]: 0(0%) mg
- percentage of total bile excretion excreted daily [2, 19]: 0(0%)
- daily amount excreted in bile [2, 20]: 0(0%) mg
- percentage of total bile excretion excreted daily [2, 20]: 0(0%)
